According to PubChem BioAssay AID248 (DTP/NCI, 2004):
Where “and” joins values, the source holds several entries; their conditions need not be identical. Equal entries are not always repeated. Inconclusive results and toxic doses are left out. Cut-off read from the data, not from the text of the source: active = T/C of 150% or more; inactive = T/C below 125%.

Tested on: L1210 leukemia ip in BDF1 mice, survival T/C
Test: NCI In Vivo Anticancer Drug Screen. Data for tumor model L1210 Leukemia (intraperitoneal) in B6D2F1 (BDF1) mice
Conditions: endpoint: mean survival time, higher = longer survival
In short: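 Survival endpoint. Drug-treated group vs vehicle group, expressed as T divided by C. Tumor passaged by transplantation.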

[1] = dose: 5.0 mg/kg/injection, schedule: Q01DX001 (ip), vehicle: saline
[2] = dose: 100.0 mg/kg/injection, schedule: Q01DX001 (ip), vehicle: carboxymethylcellulose (CMC)
[3] = dose: 100.0 mg/kg/injection, schedule: Q01DX009 (ip), vehicle: Klucel (hydroxypropylcellulose) (HPC)
[4] = dose: 200.0 mg/kg/injection, schedule: Q01DX009 (ip), vehicle: Klucel (hydroxypropylcellulose) (HPC)
[5] = dose: 100.0 mg/kg/injection, schedule: Q01DX009 (ip), vehicle: saline with Tween-80
[6] = dose: 100.0 mg/kg/injection, schedule: Q04DX003 (ip), vehicle: saline with Tween-80
[7] = dose: 200.0 mg/kg/injection, schedule: Q01DX009 (ip), vehicle: saline with Tween-80
[8] = dose: 200.0 mg/kg/injection, schedule: Q04DX003 (ip), vehicle: saline with Tween-80
[9] = dose: 400.0 mg/kg/injection, schedule: Q01DX009 (ip), vehicle: saline with Tween-80
[10] = dose: 400.0 mg/kg/injection, schedule: Q04DX003 (ip), vehicle: saline with Tween-80
[11] = dose: 100.0 mg/kg/injection, schedule: Q01DX001 (ip), vehicle: Klucel (hydroxypropylcellulose) (HPC)
[12] = dose: 200.0 mg/kg/injection, schedule: Q01DX001 (ip), vehicle: Klucel (hydroxypropylcellulose) (HPC)
[13] = dose: 400.0 mg/kg/injection, schedule: Q01DX001 (ip), vehicle: Klucel (hydroxypropylcellulose) (HPC)

Measured: T/C

C[N+](C)(C)Cc1ccc([N+](=O)[O-])cc1
inactive: dose: 2.2 mg/kg/injection, schedule: Q01DX001 (ip), vehicle: saline 101 % of control | dose: 3.3 mg/kg/injection, schedule: Q01DX001 (ip), vehicle: saline 97 % of control | [1] 94 % of control | dose: 7.5 mg/kg/injection, schedule: Q01DX001 (ip), vehicle: saline 101 % of control

Cn1c2ccc3c(c2c(=O)c2ccoc21)C=CC(C)(C)O3
inactive: dose: 50.0 mg/kg/injection, schedule: Q01DX001 (ip), vehicle: carboxymethylcellulose (CMC) 98 % of control | [2] 98 % of control | dose: 200.0 mg/kg/injection, schedule: Q01DX001 (ip), vehicle: carboxymethylcellulose (CMC) 91 % of control | dose: 400.0 mg/kg/injection, schedule: Q01DX001 (ip), vehicle: carboxymethylcellulose (CMC) 98 % of control

O=C1c2ccccc2-c2ccccc2C1(Cl)Cl
inactive: dose: 75.0 mg/kg/injection, schedule: Q01DX001 (ip), vehicle: saline 105 % of control

COc1cccc(N=Cc2ccc(C=Nc3cccc(OC)c3)cc2)c1
inactive: [3] 89 % of control | [4] 94 % of control | dose: 400.0 mg/kg/injection, schedule: Q01DX009 (ip), vehicle: Klucel (hydroxypropylcellulose) (HPC) 88 % of control

Cc1ccc2c(c1)C(=NCCCN=C1C(=O)Nc3ccc(C)cc31)C(=O)N2
inactive: [5] 96 % of control | [6] 93 % of control | [7] 91 % of control | [8] 102 % of control | [9] 98 % of control | [10] 98 % of control

S=C(Nc1ccccc1)NC1CCCCCC1
inactive: dose: 50.0 mg/kg/injection, schedule: Q01DX009 (ip), vehicle: saline with Tween-80 98 % of control and 92 % of control | [5] 94 % of control | dose: 100.0 mg/kg/injection, schedule: Q04DX003 (ip), vehicle: saline 97 % of control | [7] 90 % of control | dose: 200.0 mg/kg/injection, schedule: Q04DX003 (ip), vehicle: saline 94 % of control

O=C1C=CC(=O)c2cc3ccccc3cc21
inactive: [2] 102 % of control

O=C(COc1cc(Cl)c(Cl)cc1Cl)Nc1ccc(-c2ccccc2)cc1
inactive: dose: 75.0 mg/kg/injection, schedule: Q04DX002 (ip), vehicle: Klucel (hydroxypropylcellulose) (HPC) 95 % of control | dose: 150.0 mg/kg/injection, schedule: Q04DX002 (ip), vehicle: Klucel (hydroxypropylcellulose) (HPC) 103 % of control | dose: 300.0 mg/kg/injection, schedule: Q04DX002 (ip), vehicle: Klucel (hydroxypropylcellulose) (HPC) 98 % of control

CC1(O)CCCCC1c1ccccc1 (stereo unspecified)
inactive: dose: 100.0 mg/kg/injection, schedule: Q04DX003 (ip), vehicle: other 104 % of control | dose: 200.0 mg/kg/injection, schedule: Q04DX003 (ip), vehicle: other 95 % of control | dose: 400.0 mg/kg/injection, schedule: Q04DX003 (ip), vehicle: other 93 % of control

Oc1ccccc1C=Nc1ccc(I)cc1.Oc1ccccc1C=Nc1ccc(I)cc1.[Co]
inactive: [6] 96 % of control | [8] 108 % of control | [10] 102 % of control

O=C1OC(c2ccccc2)(c2ccccc2)c2cccc3cccc1c23
inactive: [5] 101 % of control | [7] 95 % of control | [9] 91 % of control

CCCNS(=O)(=O)c1cccc(C(N)=S)c1
inactive: [11] 101 % of control | [12] 100 % of control | [13] 103 % of control

CCN(CC)CCN(CC)C(=S)Nc1ccccc1
inactive: dose: 12.5 mg/kg/injection, schedule: Q01DX009 (ip), vehicle: Klucel (hydroxypropylcellulose) (HPC) 117 % of control | dose: 25.0 mg/kg/injection, schedule: Q01DX009 (ip), vehicle: Klucel (hydroxypropylcellulose) (HPC) 109 % of control | dose: 50.0 mg/kg/injection, schedule: Q01DX009 (ip), vehicle: Klucel (hydroxypropylcellulose) (HPC) 102 % of control

C[CH2][Ge]([CH2]C)([CH2]C)[CH2]CCO
inactive: dose: 5.0 mg/kg/injection, schedule: Q04DX002 (ip), vehicle: saline with Tween-80 103 % of control | dose: 10.0 mg/kg/injection, schedule: Q04DX002 (ip), vehicle: saline with Tween-80 97 % of control | dose: 20.0 mg/kg/injection, schedule: Q04DX002 (ip), vehicle: saline with Tween-80 95 % of control | dose: 100.0 mg/kg/injection, schedule: Q04DX002 (ip), vehicle: saline with Tween-80 93 % of control | dose: 200.0 mg/kg/injection, schedule: Q04DX002 (ip), vehicle: saline with Tween-80 93 % of control

CN(C)CCCNc1ccc(O)c2c1C(=O)c1ccccc1C2=O
inactive: dose: 50.0 mg/kg/injection, schedule: Q01DX009 (ip), vehicle: saline 100 % of control | dose: 100.0 mg/kg/injection, schedule: Q01DX009 (ip), vehicle: saline 95 % of control | dose: 200.0 mg/kg/injection, schedule: Q01DX009 (ip), vehicle: saline 106 % of control | dose: 400.0 mg/kg/injection, schedule: Q01DX009 (ip), vehicle: saline 105 % of control

Cc1cc(=O)oc2cc(OC(=O)Nc3ccc(F)c([N+](=O)[O-])c3)ccc12
inactive: [3] 101 % of control | [4] 107 % of control

c1ccc([P+](Cc2ccco2)(c2ccccc2)c2ccccc2)cc1
inactive: [1] 103 % of control | dose: 10.0 mg/kg/injection, schedule: Q01DX001 (ip), vehicle: saline 97 % of control | dose: 20.0 mg/kg/injection, schedule: Q01DX001 (ip), vehicle: saline 90 % of control | dose: 40.0 mg/kg/injection, schedule: Q01DX001 (ip), vehicle: saline 89 % of control

CCCCN(CC)/N=N/c1nc[nH]c1C(N)=O
inactive: dose: 100.0 mg/kg/injection, schedule: Q01DX001 (ip), vehicle: saline with Tween-80 95 % of control | [5] 117 % of control | [6] 94 % of control | dose: 200.0 mg/kg/injection, schedule: Q01DX001 (ip), vehicle: saline with Tween-80 101 % of control | [7] 124 % of control | [8] 110 % of control | dose: 400.0 mg/kg/injection, schedule: Q01DX001 (ip), vehicle: saline with Tween-80 116 % of control | [9] 88 % of control | [10] 103 % of control

O=S(=O)(F)/C=C\c1ccccc1
inactive: dose: 25.0 mg/kg/injection, schedule: Q01DX009 (ip), vehicle: acetone 92 % of control | dose: 100.0 mg/kg/injection, schedule: Q01DX001 (ip), vehicle: acetone 95 % of control | dose: 200.0 mg/kg/injection, schedule: Q01DX001 (ip), vehicle: acetone 104 % of control

COC(=O)c1[nH]cnc1/N=N/Nc1ccc(Cl)cc1
inactive: dose: 50.0 mg/kg/injection, schedule: Q01DX001 (ip), vehicle: other 103 % of control | dose: 100.0 mg/kg/injection, schedule: Q01DX001 (ip), vehicle: other 105 % of control | dose: 200.0 mg/kg/injection, schedule: Q01DX001 (ip), vehicle: other 105 % of control | dose: 400.0 mg/kg/injection, schedule: Q01DX001 (ip), vehicle: other 94 % of control

O=C(O)CCc1c(O)cc(Br)c(O)c1Br
inactive: [11] 90 % of control | [12] 93 % of control | [13] 96 % of control
